Laboratory results published in PMC6268222, “Inhibitory Effects of Resveratrol Analogs on Mushroom Tyrosinase Activity” (Molecules, 2012).
Converted amounts (≈) assume the structure as drawn.

Assays:
tyrosinase = target: tyrosinase; parameters: method as in earlier work; details: ref 13 (Bernard and Berthon); cited from earlier work
[1] = test system: B16-F10 murine melanoma cells; parameters: method as in PMID 22189272; details: cited from earlier work
mushroom tyrosinase = mushroom tyrosinase (Agaricus bisporus, UniProt C7FF04); assay: Tyrosinase inhibition qualitative enzymatic reaction screening; format: biochemical; details: second hour of assay; p > 0.05
Protocol: The ability to inhibit the activity of tyrosinase enzyme was evaluated using the enzymatic method described by Macrini et al., with modifications. This method relies on the inhibition of tyrosinase in the presence of its substrate tyrosine, interrupting the synthesis of melanin.
Aliquots (10 µL) of a solution composed of 125 U/mL of mushroom tyrosinase (Sigma-Aldrich, St. Louis, MO, USA) were added to 96-well microplates, and then pH 6.8 phosphate buffer solution (70 µL) and the analogs (60 µL, 350 µg/mL, in 2.5% DMSO) were also added. […] To the resultant mixture, L-tyrosine (70 µL, Sigma-Aldrich) at a concentration of 0.3 mg/mL in distilled water was added (final volume in the wells = 210 µL). The absorbances of the microplate wells were read on a spectrophotometric microplate reader (SpectraCount, Packard, Meriden, CT, USA) at 510 nm (T0). Then, the microplates were incubated at 30 ± 1 °C for 60 minutes and the absorbances were registered again (T1). An additional incubation for 60 minutes at 30 ± 1 °C was done and after this period a new spectrophotometric reading was conducted (T2). The inhibitory percentage at the two times (T1 and T2) was obtained according to the formula to inhibitory activity percentage as follows: [drawing 9] (1) Where IC% = inhibitory activity; C = negative control absorbance; S = sample or positive control absorbance (absorbance at time T1 or T2 minus the absorbance at time T0).

Chain of mushroom tyrosinase (C7FF04 1-392): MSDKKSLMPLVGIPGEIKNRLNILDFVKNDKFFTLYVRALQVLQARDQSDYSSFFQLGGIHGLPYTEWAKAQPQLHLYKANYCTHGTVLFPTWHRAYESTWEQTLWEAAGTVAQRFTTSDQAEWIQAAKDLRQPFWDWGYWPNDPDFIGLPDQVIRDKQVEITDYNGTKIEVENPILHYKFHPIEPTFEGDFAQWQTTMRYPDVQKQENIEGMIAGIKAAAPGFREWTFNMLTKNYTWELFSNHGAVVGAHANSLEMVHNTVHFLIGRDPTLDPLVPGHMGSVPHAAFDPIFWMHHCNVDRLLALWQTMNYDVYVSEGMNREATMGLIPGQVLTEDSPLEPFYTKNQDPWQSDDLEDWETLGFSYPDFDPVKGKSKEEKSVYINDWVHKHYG

melting point [°C] | Structure (SMILES) | inhibitory ability compared with kojic acid (mushroom tyrosinase) | further results
 | Oc1ccc(/C=C/c2cc(O)cc(O)c2)cc1 [resveratrol, Resveratrol] |  | IC50 (tyrosinase inhibition) (tyrosinase): 57.05 µg/mL (≈ 250 µM); cellular melanin production [1]: significantly suppressed; cytotoxicity (concentration without any cytotoxicity) [1]: > 200 µM
 | Oc1ccccc1/C=N/c1ccccc1 [Analog E] | statistically equal to that of kojic acid | 
53.1 to 54.2 | COc1cc(/C=N/c2ccccc2)ccc1O [Analog F] | statistically equal to that of kojic acid | 
 | Oc1ccc(/C=N/c2ccccc2)cc1 [Analog D] | statistically equal to that of kojic acid | 
89.6 to 90.7 | O=[N+]([O-])c1ccc(/C=N/c2ccccc2)cc1 [Analog C] |  | 
